A short description of one series: Pharmacokinetics in rat. Type of series: in vivo.
Series [1] in a line: Pharmacokinetics in mouse. It counts as in vivo.
The next series in a line: Pharmacokinetics in dog. Type of series: in vivo.
In series [2] the test system is human mast cells (FCεRI activation). Put plainly: Human mast cell activation, mediator release after FCεRI activation. Type of series: cell-based. The note with it: N = 3 donors. The procedure: One million human cord blood derived CD34+ hematopoietic stem cells (HSCs) from different donors (AllCells #CB008F-S, Emeryville, Calif.) were cultured for eight weeks in a serum-free complete medium (StemPro-34 with supplements; Invitrogen, Carlsbad, Calif.), with recombinant h-SCF (100 ng/ml) and h-IL6 (50 ng/ml). During the first week of culturing, recombinant h-IL3 (10 ng/ml) was also included to support HSCs differentiation. After 8 weeks of culture, cells were stimulated with recombinant h-IL-4 (10 ng/ml) for 5 days. Confirmation of the mast cell differentiation process was routinely done by FACS to check for c-kit and FcsRI expression; differentiated cells were routinely more than 90% c-kit positive, FceRI positive. Differentiated mast cells were sensitized with […] anti-NP IgE (Serotec, Raleigh, N.C.) overnight at 37° C. Cells were washed and then treated with Compound 1 for 1 hour at 37° C. After treatment, cells were cross-linked with […] NP(30)-BSA (Biosearch Technologies, Novato Calif.) for 30 minutes (for histamine and lipid mediator assessment) or overnight (for cytokine assessment). Culture supernatants were collected and assayed for histamine (Oxford Biomedical Research, Rochester Hills, Mich.), PGD2 and LTC4 (Cayman Chemical Company, Ann Arbor Mich.), and IL-5 and IL-13 (Bio-Rad Bio-Plex Pro cytokine quantification kit) release as per kits' instructions. Compound 1, Compound 2 and Compound 3 reduced the release of these mediators into the supernatant in a concentration dependent manner up to 100% efficacy and the IC50 values are reported in Table 2.

The subject of series [3] is OVA sensitized and challenged mice, airway eosinophilia. Briefly: Ovalbumin-induced allergic airway disease: allergen-induced airway eosinophilia. It counts as in vivo, mouse. The note with it: for % reduction in airway eosinophilia: Inhaled, mOVA40. The protocol:
The mouse model of ovalbumin-induced allergic airway disease was employed to assess the effects of Compound 1 on allergen-induced bronchoconstriction and allergen-induced airway inflammation. Briefly, mice (male; BALB/c; 7-9 weeks of age) were immunized i.p. with […] of ovalbumin (OVA) in 0.2 ml of Alum (2% Al(OH)3 in water, Serva, Heidelberg, Germany) on days 0 and 14. Control animals received Alum only. On days 21-23, animals were exposed for 20 min to a nebulized (Proneb Ultra II, PARI Respiratory Equipment, Midlothian, Va.,) aerosol of 1% OVA (10 mg/ml) in phosphate-buffered saline (PBS), to establish the inflammatory process within the lung; or PBS alone as a control. For studies where intranasal dosing was used, mice were anesthetized with isoflurane and intranasally (i.n.) administered vehicle (20% propylene glycol) or Compound 1 (0.3 mg/kg) one hour prior to each aerosolized OVA challenge.
For studies using inhalation delivery, Compound 1 was micronized by a jet mill (MC One Jet Mill, Jetpharma USA Inc., South Plainfield, N.J.) and the dry powder aerosol was generated using a Wright dust feed dry powder aerosol generator. The micronized drug powder was packed into a cylindrical reservoir using a hydraulic press at approximately 1000 psi to produce compacted cakes of powder used as input by the Wright dust feed. The dust feed creates and aerosol that is passed through a sonic nozzle for de-agglomeration and into a cyclone to remove non-respirable particles and agglomerates. The cyclone output passed into the TSE nose-only rodent exposure system. Dose groups of mice were exposed to the aerosol test atmosphere for 5, 15, or 45 minutes. […] The particle size distribution for each exposure was evaluated by collecting aerosol samples with an eight stage cascade impactor. […] Impactor data were mathematically evaluated to determine the Mass Median Aerodynamic Diameter (MMAD) and Geometric Standard Deviation (GSD) of 6-tert-Butyl-2-[2-hydroxymethyl-3-(5-{5-[(2-methoxy-ethylamino)-methyl]-pyridin-2-ylamino}-1-methyl-6-oxo-1,6-dihydro-pyridin-3-yl)-phenyl]-3,4-dihydro-2H-isoquinolin-1-one using graphical analysis of an assumed lognormal distribution. The estimated deposited dose of Compound 1 was calculated using a minute volume for the mouse of 0.026 liters per minute and the pulmonary deposition fraction was determined from the MMAD. […]
To study the effects of Compound 1 on airway inflammation, after the three 1% OVA challenges, a final OVA challenge was given as an aerosol solution of 5% OVA in PBS (50 mg/ml) or PBS alone for 20 min. […] The lungs were lavaged and airway inflammation was evaluated as previously described by performing total and differential cell counts [Harris et al., 2012, Mucosal Immunology]. […]

Read-outs that look alike come from different tables or passages of the source. Marks after values point to notes of the source that are not given here.

For the compound `CN1CCC(c2ccc(Nc3cc(-c4ccnc(-n5ncc6cc(C(C)(C)C)cc(F)c6c5=O)c4CO)nn(C)c3=O)nc2)CC1` [Compound 1, 6-tert-Butyl-8-fluoro-2-{3-hydroxymethyl-4-[1-methyl-5-(1′-methyl-1′,2′,3′,4′,5′,6′-hexahydro-[3,4′]bipyridinyl-6-ylamino)-6-oxo-1,6-dihydro-pyridazin-3-yl]-pyridin-2-yl}-2H-phthalazin-1-one], the CL entry in “Pharmacokinetics in rat” (1.0 mg/kg (iv)) was “high”; in series [1] (1.0 mg/kg (iv)), “moderate”; in the series “Pharmacokinetics in dog” (1.0 mg/kg (iv)) it was “high”. The “Oral Bioavailability” value in “Pharmacokinetics in rat” (1.0 (iv), 2.0 (po) mg/kg) is given as “low”; in series [1] (1.0 (iv), 10 (po) mg/kg), “low”; in the series “Pharmacokinetics in dog” (1.0 (iv), 1.0 (po) mg/kg) it was “low”. Further, the clearance is 75.8 mL/min/kg in “Pharmacokinetics in rat” (plasma, 1.0 mg/kg (iv)); 26 mL/min/kg in series [1] (plasma, 1.0 mg/kg (iv)); 28.3 mL/min/kg in the series “Pharmacokinetics in dog” (plasma, 1.0 mg/kg (iv)). For the same compound, the bioavailability in “Pharmacokinetics in rat” (plasma, 2 mg/kg, 1.0 (iv), 2.0 (po) mg/kg) is 2%; in series [1] (plasma, 10 mg/kg, 1.0 (iv), 10 (po) mg/kg), 12%; in “Pharmacokinetics in dog” (plasma, 1 mg/kg, 1.0 (iv), 1.0 (po) mg/kg), 1.5%. Moreover, the IC50 in series [2] (read-out: IC50 1L-13 release) is 11.6 nM; in series [2] (read-out: IC50 GM-CSF release) it was 3.77 nM; in series [2] (read-out: IC50 Histamine release), 14.7 nM; in series [2] (read-out: IC50 IL-5 release), 7.32 nM; in series [2] (read-out: IC50 LTC4 release), 4.28 nM; in series [2] (read-out: IC50 PGD2 release), 6.31 nM. Besides, the “% reduction in airway eosinophilia” value in series [3] (delivered dose 0.09 mg/kg, deposited dose .003 mg/kg) is on record as 82* %; in series [3] (delivered dose 0.27 mg/kg, deposited dose .010 mg/kg), 83* %; in series [3] (delivered dose 0.81 mg/kg, deposited dose .030 mg/kg) it was 84* %. In series [3] (dry powder formulation by inhalation), the “OVA-induced increase in the numbers of eosinophils recovered in the lavage fluid” value is given as “effectively inhibited”.

(Values after patent publication US20150290192A1, “INHIBITORS OF BRUTON'S TYROSINE KINASE” (HOFFMANN-LA ROCHE INC., priority 2012, published 2015).)
